Series [1] can be described thus: Solubility of TRI 50c monosodium salt at different pH values. The class given is physicochemical. As for the experimental part: It may be desirable to make aqueous solutions of boronic acid drugs for administering them. […] However, a solution with a pH of 9.5 may be unacceptable or undesirable. Accordingly, a pharmaceutically acceptable organic acid may be included in the particulate formulation in an amount selected to reduce the pH to a value at which the solution is more acceptable but at which a solution of drinkable quantity (e.g. about 50 ml to about 150 ml) may be formed by reconstituting the particulate formulation. As the organic acid may be mentioned citric acid, tartaric acid or malic acid, for example. In many instances, citric acid is chosen.
In a first series of experiments, this amount of the salt was dissolved in 50 ml water to form a solution of approximately pH 9.5. Dilute aqueous HCl was added to determine how much the pH could be reduced before precipitation occurred.
In a second series of experiments, the same amount of the salt was dissolved in 150 ml water, and citric acid was added. […] Since acid solutions tend to be more palatable than alkaline ones, and citric acid is a common flavouring agent, this behaviour of the salt is highly beneficial. […] In general, it is contemplated that the boronate will be formulated to form a reconstituted solution having a pH of from 4 to 8, e.g. 4 to 7, optionally 5 to 6.

Series [2] is described as follows: Stability under conditions of HPLC purity determination. The class given is physicochemical. To be noted: sample preparation for HPLC.
In the next series the target is thrombin (Homo sapiens, UniProt P00734). The series is described as follows: Thrombin inhibition, chromogenic substrate (Method A). The class given is biochemical. The protocol:
50 μl thrombin (33.3 ng/ml in assay buffer) and 20 μl vehicle or compound solution were added to 110 μl assay buffer (100 mM Na orthophosphate (80% Na2HPO4 and 20% NaH2PO4), 200 mM NaCl, 0.5% PEG 6000, 0.02% Na azide, pH 7.5) and incubated for 5 minutes at 37° C.

For series [3], the system named is Trypsin. Briefly: Trypsin inhibition, chromogenic substrate (Method C). The class given is biochemical. As to conditions: Trypsin versus thrombin. The protocol: (§1) 50 μl Trypsin (20 ng/ml in assay buffer) and 20 μl vehicle or compound solution were added to 110 μl assay buffer (100 mM Na orthophosphate (80% Na2HPO4 and 20% NaH2PO4), 200 mM NaCl, 0.5% PEG 6000, 0.02% Na azide, pH 7.5) and incubated for 5 minutes at 37° C.

Series [4] deals with T1, Trypsin.
T1 construct: IC50; other: Trypsin; Ki
The description is as above. Format: biochemical. As to conditions: Trypsin. The protocol:
as §1

In another series the target is Plasmin (Homo sapiens, UniProt P00747). Briefly: Plasmin inhibition, chromogenic substrate (Method B). Format: biochemical. The protocol:
50 μl Plasmin (75 ng/ml in assay buffer) and 20 μl vehicle or compound solution were added to 110 μl assay buffer (100 mM Na orthophosphate (80% Na2HPO4 and 20% NaH2PO4), 200 mM NaCl, 0.5% PEG 6000, 0.02% Na azide, pH 7.5) and incubated for 5 minutes at 37° C.

This is an account of results in US20070185060A1, “Boronic acid thrombin inhibitors” (TRIGEN LIMITED, priority 2004, published 2007).

Some results are limits rather than exact numbers.

Sequence of Plasmin (P00747 581-810 limits assumed, species assumed): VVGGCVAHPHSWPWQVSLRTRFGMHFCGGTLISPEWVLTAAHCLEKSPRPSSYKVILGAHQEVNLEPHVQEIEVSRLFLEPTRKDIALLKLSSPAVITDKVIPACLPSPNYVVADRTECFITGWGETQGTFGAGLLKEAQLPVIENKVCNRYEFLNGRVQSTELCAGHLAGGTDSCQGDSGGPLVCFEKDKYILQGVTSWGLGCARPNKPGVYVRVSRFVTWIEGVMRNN
Sequence of Plasmin (P00747 97-580 partner limits assumed, species assumed): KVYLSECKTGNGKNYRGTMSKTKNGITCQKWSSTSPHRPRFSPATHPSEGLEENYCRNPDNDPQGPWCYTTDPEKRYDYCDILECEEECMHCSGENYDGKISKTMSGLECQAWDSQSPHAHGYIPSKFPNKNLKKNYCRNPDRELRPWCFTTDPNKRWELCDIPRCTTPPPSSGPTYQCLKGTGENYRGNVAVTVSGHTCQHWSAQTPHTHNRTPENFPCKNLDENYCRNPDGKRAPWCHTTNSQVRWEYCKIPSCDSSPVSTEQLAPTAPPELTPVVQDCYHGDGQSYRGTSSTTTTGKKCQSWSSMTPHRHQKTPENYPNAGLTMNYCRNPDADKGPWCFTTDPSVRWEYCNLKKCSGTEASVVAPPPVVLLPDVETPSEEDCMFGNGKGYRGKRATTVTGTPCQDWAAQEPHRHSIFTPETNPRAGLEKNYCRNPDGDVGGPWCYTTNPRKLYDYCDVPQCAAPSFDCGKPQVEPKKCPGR

With `COCCC[C@H](NC(=O)[C@@H]1CCCN1C(=O)[C@@H](Cc1ccccc1)NC(=O)OCc1ccccc1)B(O)O.[Na+]` [TRI 50c monosodium salt, Cbz-(R)-Phe-(S)-Pro-(R)-Mpg-B(OH)2 monosodium salt], in series [1] (aqueous solution at a pH of about 9.5), the “concentration of boronate salt solution that can be formed” value is listed as “about 600 mg/ml”. Besides, the “pH below which the salt tended to precipitate” value in series [1] (salt equivalent to 600 mg TRI 50c in 50 ml water, dilute aqueous HCl added) is listed as “below 9”. For the same compound, the “pH to which solution could be reduced before precipitation occurred” value in series [1] (salt equivalent to 600 mg TRI 50c in 150 ml water, citric acid added) is reported as 3.7-3.8.

With `COCCCC(NC(=O)C1CCCN1C(=O)C(Cc1ccccc1)NC(=O)OCc1ccccc1)B1OCCNCCO1` (stereo not drawn) [TRI 50d], the “stability under HPLC purity determination conditions” value in series [2] is “not stable”.

For the compound `COCCC[C@H](NC(=O)[C@@H]1CCCN1C(=O)[C@@H](Cc1ccc(F)cc1)NC(=O)OCc1ccccc1)B(O)O` [TRI 50f, Cbz-4-F-Phe-Pro-boroMpg-OH], the values for the IC50 against thrombin, with Trypsin [4] and against Plasmin (Plasmin) were under 0.1 µM, over 10 µM and over 100 µM, respectively. In addition, the inhibition constant (Ki) on thrombin was under 0.075 µM; at Trypsin [4], over 5 µM; on Plasmin (Plasmin), over 100 µM. Further, the Selectivity in the series with Trypsin [3] is over 100; on Plasmin (Plasmin versus thrombin) it was over 1000.

A word on the IC50: it is the concentration needed to halve the response being measured. Low values mean inhibition by little substance, high ones a need for much substance. Broadly, the Ki is a dissociation constant, usually derived from enzyme kinetics or from competition with a known ligand. A low value points to a stronger hold on the target.
